The values below come from patent US11421044B2, “Nitric oxide-releasing antibacterial polymers and scaffolds fabricated therefrom and methods pertaining thereto” (THE UNIVERSITY OF NORTH CAROLINA AT CHAPEL HILL, priority 2018, dated 2022).

Holding throughout (experiment): Planktonic bactericidal assay, 4 h
What all share (conditions): 4 h exposure

In one experiment the test system is S. aureus. It counts as cell-based, Staphylococcus aureus (ATCC #29213). The protocol:
(§1) Planktonic bactericidal assay. Bacterial cultures of P. aeruginosa, E. coli, E. faecalis, S. aureus, multidrug-resistant (MDR) P. aeruginosa, and methicillin-resistant S. aureus were grown from frozen (−80° C.) stocks overnight in TSB (3 mL) at 37° C. An aliquot (1 mL) of the overnight solution was recultured in fresh TSB (50 mL) to a concentration of 10^8 CFU mL^−1 and subsequently diluted to 10^6 CFU mL^−1 in PBS (10 mM, pH 7.4). Weighed samples of control (non-NO-releasing) HA, NO-releasing HA, or neomycin sulfate were dissolved in PBS and titrated with 1 M HCl to adjust the pH to 7.4.
(§2) Samples were added to a 96-well polystyrene plate and serially diluted in PBS so that each well contained 100 μL of control HA, NO-releasing HA, or neomycin. Bacterial solution containing 10^6 CFU mL^−1 (100 μL; 1 vol % TSB supplemented PBS) was added to each well, giving final HA concentrations in the range of 0.25 to 32 mg mL^−1 or neomycin concentrations from 0.5 to 1024 μg mL^−1. The 96-well plate was then incubated at 37° C. for 4 h with gentle shaking. […] Viability of bacteria following treatment with HA or neomycin was determined using a Flash & Go colony counter (IUL; Farmingdale, N.Y.). […] The NO dose required for bactericidal action was calculated by multiplying the MBC4 h of the NO-releasing HA samples (mg mL^−1) with the total NO released in PBS (pH 7.4; μmol NO mg^−1 HA) at 4 h. […]

Another experiment concerns E. coli. It is filed as cell-based, Escherichia coli (ATCC #43888). As for the experimental part: as §1, §2
For another experiment, the system named is MRSA. It is filed as cell-based, methicillin-resistant S. aureus (ATCC #33591). As for the experimental part:
as §1, §2

A further experiment deals with MDR-P. aeruginosa. It counts as cell-based, multidrug-resistant P. aeruginosa (ATCC #BAA-2110). The protocol: as §1, §2
The next experiment deals with P. aeruginosa. It counts as cell-based, Pseudomonas aeruginosa (ATCC #47085). The protocol: as §1, §2
The next experiment deals with E. faecalis. It counts as cell-based, Enterococcus faecalis (ATCC #29212). As for the experimental part: as §1, §2

Turning to neomycin sulfate, the “Dose of neomycin for 3-log reduction” value in the experiment with S. aureus was 2 μg mL^−1; in the experiment on E. coli it was 1 μg mL^−1; in the experiment on MRSA, >1024 μg mL^−1; in the experiment on MDR-P. aeruginosa it was 128 μg mL^−1; in the experiment on P. aeruginosa, 32 μg mL^−1; in the experiment on E. faecalis, 64 μg mL^−1.
